Reference: ChEMBL document CHEMBL1933012, “Design and diversity-oriented synthesis of novel 1,4-thiazepan-3-ones fused with bioactive heterocyclic skeletons and evaluation of their antioxidant and cytotoxic activities” (Bioorg Med Chem Lett, 2012)

Tests used:
[1] = test system: HCT-116; assay: Growth inhibition of human HCT116 cells at 1 mg/mL after 48 hrs by MTT assay; format: functional; conditions: HCT-116, 48 h, read-out: GI
[2] = Cytotoxicity against mouse spleen lymphocytes assessed as cell viability at 1 mg/mL after 48 hrs by MTT assay relative to control; format: tissue-based, Lymphocyte; conditions: read-out: Activity

In the case of `Cc1nn(-c2ccccc2)c2c1C(c1ccc3c(c1)OCO3)SCC(=O)N2` (configuration not stated), the inhibition of growth at 1000 µg/mL [1] was 51.3% and the viability at 48 h, 1 mg/mL [2] was 66.9%.

For `COc1ccc(C2SCC(=O)Nc3c2c(C)nn3-c2ccccc2)cc1` (configuration not stated), the inhibition of growth at 1000 µg/mL [1] was 57.8% and the viability at 48 h, 1 mg/mL [2] was 78.8%.

Compound `CCn1c2ccccc2c2c3c(ccc21)NC(=O)CSC3c1ccc(C)cc1` (configuration not stated) has an inhibition of growth at 1000 µg/mL [1] of 53.4% and a viability at 48 h, 1 mg/mL [2] of 93.2%.

In the case of `CCn1c2ccccc2c2c3c(ccc21)NC(=O)CSC3c1ccc(OC)cc1` (configuration not stated), the inhibition of growth at 1000 µg/mL [1] was 58.9% and the viability at 48 h, 1 mg/mL [2] was 51.4%.

`CCn1c2ccccc2c2c3c(ccc21)NC(=O)CSC3c1ccc2c(c1)OCO2` (configuration not stated) gave an inhibition of growth at 1000 µg/mL [1] of 51.6% and a viability at 48 h, 1 mg/mL [2] of 158%.

For `CCn1c2ccccc2c2c3c(ccc21)NC(=O)CSC3c1ccc(OC)c(OC)c1` (configuration not stated), the inhibition of growth at 1000 µg/mL [1] was 56.2% and the viability at 48 h, 1 mg/mL [2] was 101%.

`CCn1c2ccccc2c2c3c(ccc21)NC(=O)CSC3c1cccs1` (configuration not stated) showed an inhibition of growth at 1000 µg/mL [1] of 60.3% and a viability at 48 h, 1 mg/mL [2] of 45%.

Compound `CCn1c2ccccc2c2c3c(ccc21)NC(=O)CSC3c1ccc(Br)cc1` (configuration not stated) has an inhibition of growth at 1000 µg/mL [1] of 62% and a viability at 48 h, 1 mg/mL [2] of 136%.

In the case of `COc1ccc(C2SCC(=O)Nc3ccc4[nH]ncc4c32)cc1` (configuration not stated), the inhibition of growth at 1000 µg/mL [1] was 61.8% and the viability at 48 h, 1 mg/mL [2] was 44.8%.

`Cc1ccc(C2SCC(=O)Nc3ccc4[nH]ncc4c32)cc1` (configuration not stated) gave an inhibition of growth at 1000 µg/mL [1] of 66.8% and a viability at 48 h, 1 mg/mL [2] of 20.5%.

Compound `O=C1CSC(c2ccc3c(c2)OCO3)c2c(ccc3[nH]ccc23)N1` (configuration not stated) has an inhibition of growth at 1000 µg/mL [1] of 55.9% and a viability at 48 h, 1 mg/mL [2] of 155%.

In the case of `COc1cc(C2SCC(=O)Nc3ccc4[nH]ncc4c32)cc(OC)c1OC` (configuration not stated), the inhibition of growth at 1000 µg/mL [1] was 58.2% and the viability at 48 h, 1 mg/mL [2] was 166%.

For `O=C1CSC(c2ccc(Br)cc2)c2c(ccc3[nH]ncc23)N1` (configuration not stated), the inhibition of growth at 1000 µg/mL [1] was 63.4% and the viability at 48 h, 1 mg/mL [2] was 42.6%.

Compound `O=C1CSC(c2ccc(Cl)cc2)c2c(ccc3[nH]ncc23)N1` (configuration not stated) has an inhibition of growth at 1000 µg/mL [1] of 60.9% and a viability at 48 h, 1 mg/mL [2] of 67.9%.

For `Cc1ccc(C2SCC(=O)Nc3c2c(C)nn3-c2ccccc2)cc1` (configuration not stated), the inhibition of growth at 1000 µg/mL [1] was 58.4% and the viability at 48 h, 1 mg/mL [2] was 25.7%.

In the case of `Cc1nn(-c2ccccc2)c2c1C(c1ccc(Cl)cc1)SCC(=O)N2` (configuration not stated), the inhibition of growth at 1000 µg/mL [1] was 50.2% and the viability at 48 h, 1 mg/mL [2] was 82.3%.

Compound `Cc1nn(-c2ccccc2)c2c1C(c1ccccc1Cl)SCC(=O)N2` (configuration not stated) has an inhibition of growth at 1000 µg/mL [1] of 55.3% and a viability at 48 h, 1 mg/mL [2] of 68.7%.

Compound `Cc1nn(-c2ccccc2)c2c1C(c1ccc(Cl)cc1Cl)SCC(=O)N2` (configuration not stated) has an inhibition of growth at 1000 µg/mL [1] of 53.3% and a viability at 48 h, 1 mg/mL [2] of 156%.

Work on `Cc1ccc(C2SCC(=O)Nc3onc(C)c32)cc1` (configuration not stated) yielded an inhibition of growth at 1000 µg/mL [1] of 64.7% and a viability at 48 h, 1 mg/mL [2] of 103%.

`Cc1noc2c1C(c1ccc3c(c1)OCO3)SCC(=O)N2` (configuration not stated) showed an inhibition of growth at 1000 µg/mL [1] of 50.4% and a viability at 48 h, 1 mg/mL [2] of 87.2%.

For `COc1ccc(C2SCC(=O)Nc3onc(C)c32)cc1OC` (configuration not stated), the inhibition of growth at 1000 µg/mL [1] was 54.6% and the viability at 48 h, 1 mg/mL [2] was 165%.

Work on `Cc1noc2c1C(c1cccs1)SCC(=O)N2` (configuration not stated) yielded an inhibition of growth at 1000 µg/mL [1] of 62.6% and a viability at 48 h, 1 mg/mL [2] of 160%.

With `Cc1nn(-c2ccccc2)c2c1C(c1cccc([N+](=O)[O-])c1)SCC(=O)N2` (configuration not stated) the inhibition of growth at 1000 µg/mL [1] was 54.3% and the viability at 48 h, 1 mg/mL [2] was 154%.

`COc1ccc(C2SCC(=O)Nc3onc(C)c32)cc1` (configuration not stated) showed an inhibition of growth at 1000 µg/mL [1] of 60.3% and a viability at 48 h, 1 mg/mL [2] of 165%.

`Cc1noc2c1C(c1ccccc1Cl)SCC(=O)N2` (configuration not stated) showed an inhibition of growth at 1000 µg/mL [1] of 54.6% and a viability at 48 h, 1 mg/mL [2] of 170%.

Compound `Cc1noc2c1C(c1ccc(Br)cc1)SCC(=O)N2` (configuration not stated) has an inhibition of growth at 1000 µg/mL [1] of 63% and a viability at 48 h, 1 mg/mL [2] of 157%.
